According to patent publication US10065965B2, “Imidazo[1,2-B][1,2,4]triazine derivatives as antiparasitic agents” (GlaxoSmithKline Intellectual Property Development Limited, priority 2015, dated 2018):

Experiments:
Type in all cases: cell-based
[1] = Assay 6 Trypanosoma cruzi intracellular assay, cytotoxicity against H9c2 cells; conditions: rat, H9C2 cardiomyocytes infected with T. cruzi trypomastigotes, total number of H9C2 cells, minimum threshold 4.3, read-out: cytotoxicity against H9c2 cells, pEC50 (converted)
Description: Compounds were dispensed into black 384-well assay plates (Greiner) by acoustic dispensing (LabCyte ECHO). For potency determinations, eleven-point, one in three dilution curves were generated, with a top concentration of 50 μM. H9C2 rat cardiomyocytes cells were dispensed in T225 tissue culture flasks and after 4 hours they were infected during 18 hours with T. cruzi trypomastigotes in the same T225 tissue culture flasks at a multiplicity of infection of 1. Next, any remaining free trypomastigotes were washed away with PBS and the infected H9C2 cells were harvested by trypsinisation. The infected H9C2 cells were then plated into 384-well plates containing the compounds to be tested, at 2500 cells per well in DMEM media with 2% FBS, 1% Penicillin/Streptomocin, 2 mM L-Glutamine, 1 mM Na Pyruvate and 25 mM HEPES. After 72 h incubation at 37° C. in presence of 5% CO2, the plates were fixed and stained with 4% formaldehyde and 2 μM Draq5 for 3 hours at room temperature. The plates were imaged on a Perkin Elmer Opera high-content imaging system using a 20× air objective. Images were analysed using the Acapella building blocks system (Perkin Elmer). The image analysis algorithm first identified the H9C2 nuclei followed by demarcation of the cytoplasm and identification of intracellular amastigotes. This algorithm reported mean number of parasites per H9C2 cell, the percentage of infected H9C2 cells and the total number of H9C2 cells.

[2] = Assay 1 intramacrophage Leishmania donovani assay, THP-1 cell count (cytotoxicity readout); conditions: human, minimum threshold 4.3, read-out: cytotoxicity against THP-1 cells, pEC50 value (converted)
Description: The intramacrophage Leishmania assay was performed using a modified version of the method described in De Rycker et al. (Antimicrob Agents Chemother. 2013 July; 57(7):2913-22. Comparison of a high-throughput high-content intracellular Leishmania donovani assay with an axenic amastigote assay. De Rycker M, Hallyburton I, Thomas J, Campbell L, Wyllie S, Joshi D, Cameron S, Gilbert I H, Wyatt P G, Frearson J A, Fairlamb A H, Gray D W.). Procedure: 350 nl of compound was pre-dispensed into 384 well sterile intermediary plates. For single point screening, amphotericin B was added to all wells of column 24 as a positive control (final concentration 2 μM) and DMSO to column 23. For potency determinations, ten-point, one in three dilution curves were created with the highest concentration being 50 μM and on each plate a control curve of amphotericin B was included. Controls were as follows: columns 11 and 12: DMSO, columns 23 and 24: amphotericin B (final concentration 2 μM). To the intermediary plates, 35 μl of THP-1 media was added and plates were shaken for >5 min to ensure complete mixing. THP-1 cells (8,000 per well, 50 μl) were plated into black clear-bottom 384 well plates (Corning) in presence of 20 nM PMA. After 20 min at RT, the plates were incubated at 37° C. under 5% CO2 in a humidified incubator for 75 h. The cells were then washed with […] sterile phosphate buffered saline (PBS) supplemented with 1 mM CaCl2, 0.5 mM MgCl2, 0.1% (w/v) bovine serum albumin (PBS-A) and amastigotes were added to all wells at a multiplicity of infection of 5 (40,000 amastigotes per well). After 40 min at RT, plates were returned to the incubator. Amastigotes were incubated in the presence of THP-1 macrophages for 16 h. Any remaining extracellular amastigotes were subsequently removed with an overflow wash of 1 mL PBS-A per well (wash buffer is being aspirated from the top of the well as it is being dispensed) followed by addition of 25 μl of the compound pre-dilutions using a Fluidx Ipette-pro pipetting station. The final dilution of each compound was 200-fold. Plates were incubated for 96 h and then washed (250 μl PBS-A) and fixed (4% (v/v) formaldehyde-PBS, 30 min, RT). After fixation, the wells were washed with 250 μl PBS, stained (10 μg/mL DAPI, 0.4 μg mL-1 HCS Cellmask Deep Red in PBS+0.1% (v/v) Triton X-100, 30 min, RT) and washed with 250 μl PBS. Finally, PBS+0.05% (v/v) thimerosal was added to the wells, the plates were sealed and imaged on a high-content microscope (GE IN Cell 2000) using a 10× objective. Image analysis was carried out with GE IN Cell Analyzer 1000 Workstation using the “Multi Target Analysis” module. Settings for segmentation were as follows: nuclei: minimum area: 142.384 μm2, sensitivity: 81, method: top-hat; cells: characteristic area: 2500 μm2, sensitivity: 60, method: multiscale top-hat; organelles (amastigotes): granule size 1-3, 3 scales, sensitivity: 90, detection in entire cell. For each well, i) THP-1 cell count (cytotoxicity readout) and ii) average number of amastigotes per cell (potency readout) were calculated, both in terms of pEC50 values.

Leishmania donovani = assay: Assay 5 Leishmania donovani intracellular assay (eGFP amastigotes in THP-1 cells); conditions: 96 h, read-out: pEC50 value against Leishmania donovani (converted)
Description: Compounds were dispensed into black 384-well assay plates (Greiner) by acoustic dispensing (LabCyte ECHO). For potency determinations, eleven-point, one in three dilution curves were generated, with a top concentration of 50 μM. THP-1 human monocytes cells were dispensed in T225 tissue culture flasks and differentiated using 30 nM of PMA, after 24 hours they were infected overnight using Leishmania donovani expressing Green Fluorescent Protein (eGFP) amastigotes in the same T225 tissue culture flasks at a multiplicity of infection of 10. Next, any remaining free amastigotes were washed away with PBS and the infected THP-1 cells were harvested by trypsinisation. The infected cells were then plated into 384-well plates containing the compounds to be tested, at 3000 cells per well in RPMI media with 2% FBS and 25 mM Sodium bicarbonate. After 96 h incubation at 37° C. in presence of 5% CO2, the plates were fixed with 4% formaldehyde for 30 minutes, washed with PBS and stained with 0.1 mg/mL of DAPI for 30 minutes and washed again with PBS. The plates were imaged on a Perkin Elmer Opera high-content imaging system using a 20× air objective with two expositions, one for DAPI stain and other for eGFP. Images were analysed using the Acapella building blocks system (Perkin Elmer). […]

[3] = Assay 5 Leishmania donovani intracellular assay, cytotoxicity against THP-1 cells; conditions: human, total number of THP-1 cells, minimum threshold 4.3, read-out: cytotoxicity against THP-1 cells, pEC50 value (converted)
Description: Compounds were dispensed into black 384-well assay plates (Greiner) by acoustic dispensing (LabCyte ECHO). For potency determinations, eleven-point, one in three dilution curves were generated, with a top concentration of 50 μM. THP-1 human monocytes cells were dispensed in T225 tissue culture flasks and differentiated using 30 nM of PMA, after 24 hours they were infected overnight using Leishmania donovani expressing Green Fluorescent Protein (eGFP) amastigotes in the same T225 tissue culture flasks at a multiplicity of infection of 10. Next, any remaining free amastigotes were washed away with PBS and the infected THP-1 cells were harvested by trypsinisation. The infected cells were then plated into 384-well plates containing the compounds to be tested, at 3000 cells per well in RPMI media with 2% FBS and 25 mM Sodium bicarbonate. After 96 h incubation at 37° C. in presence of 5% CO2, the plates were fixed with 4% formaldehyde for 30 minutes, washed with PBS and stained with 0.1 mg/mL of DAPI for 30 minutes and washed again with PBS. The plates were imaged on a Perkin Elmer Opera high-content imaging system using a 20× air objective with two expositions, one for DAPI stain and other for eGFP. Images were analysed using the Acapella building blocks system (Perkin Elmer). The image analysis algorithm first identified the THP-1 nuclei followed by demarcation of the cytoplasm and identification of intracellular amastigotes. This algorithm reported mean number of parasites per THP-1 cell, the percentage of infected THP-1 cells and the total number of THP-1 cells.

## O=C(Nc1ccc(F)c(-c2cn3nc(N4CCOCC4)cnc3n2)c1)N1CCCC1 [Example 1, N-(4-fluoro-3-(2-morpholinoimidazo[1,2-b][1,2,4]triazin-6-yl)phenyl)pyrrolidine-1-carboxamide]
[1]
  EC50 at 72 h: > 50.1 µM
[2]
  EC50 at 96 h: > 50.1 µM
Leishmania donovani
  EC50: 0.158 µM
[3]
  EC50 at 96 h: > 50.1 µM
